One data set relates to rat muscle atrophy model. As to the kind of experiment: Muscle atrophy preventing action test (hindlimb suspension). The format is in vivo. Here is the method: Using the compound (I) (Sample 1), the muscle atrophy preventing action on a rat muscle atrophy model was tested in the following manner. Eight-week-old male Crlj:WI rats (purchased from Charles River Laboratories Japan, Inc.) were reared in an maintained environment of controlled temperature: 20.0-26.0° C., controlled humidity: 40.0-70.0% RH, light and dark for 12 hours each, and ventilation frequency: 12 times/hour. During the rearing period, solid feed (CRF-1, available from Oriental Yeast Co., Ltd.) was placed in a feeder and consumed ad libitum. However, during the hindlimb suspension rearing period described below, the rats were allowed to consume the feed by scattering it on the floor. For drinking water, tap water was available ad libitum using a water bottle. After a 5-day quarantine period and a 2-day acclimatization period, the rats were grouped with 8 rats per group as listed in Table 1 by random sampling so that the average weight and variance of each group were approximately equal. The rats were put into a state in which the tails of the rats were attached to a rail on the ceiling with a rat tail suspension clip and the hindlimbs of the rats were off the floor (hindlimb suspension), and muscle atrophy was induced in this state by rearing the rats for 14 days after the grouping on the grouping day. During the period of rearing with suspended hindlimbs, the rats were able to move within the rearing cage using their forelimbs, and were able to freely consume water and feed. The compound (I) (Sample 1) was dissolved in water for injection and administered orally by force using a syringe to which a feeding needle was attached. The grouping day was taken as the first day (day 1 of administration), the administration was performed once a day for 14 days, and the day after the 14th day of administration (day 15 of administration) was the last day of the rearing period. On the last day of the hindlimb suspension rearing (day 15 of administration), blood was collected from the abdominal aorta using a heparin-Na treated vacuum blood collection tube and a winged intravenous needle under isoflurane anesthesia. After blood collection, the rats were euthanized by exsanguination from the abdominal aorta, and the right and left gastrocnemius and soleus muscles were extracted. The extracted gastrocnemius and soleus muscles were weighed separately on the right and left sides (the values in Table 2 are the total values).

Data set [1] deals with MuRF-1 (Gene Symbol: Trim63). As to the kind of experiment: Gene expression analysis (real-time PCR) in gastrocnemius muscle of muscle atrophy model: MuRF-1. The format is in vivo, rat. As to the method: (§1) A gene expression analysis test using real-time PCR was conducted on the gastrocnemius muscle extracted in Testing Example 1 above. The tissue of the gastrocnemius muscle extracted in Testing Example 1 above was fragmented, and total RNA was extracted using RNeasy® Lipid Tissue Mini Kit (available from Qiagen). The obtained total RNA was quantified using a spectrophotometer, and the total RNA was prepared to be 71.4 ng/μL. Using 1000 ng of the total RNA as a template, a reverse transcription reaction was performed using SuperScript® VILO™ CDNA Synthesis Kit (available from Thermo Fisher Scientific). The reaction solution was 20 μL, and the operation was based on the manual attached to the above kit. […] Assay mixes corresponding to the genes to be analyzed were prepared for respective genes using corresponding Taqman® Gene Expression Assays (the assay ID for each gene is described previously). […] After the reaction was completed, the Ct value was calculated using analysis software (Fluidigm Real Time PCR Analysis 4.5.2, available from Fluidigm). The obtained Ct value of each gene was standardized with the Ct value of the internal standard gene GAPDH, and the relative value was calculated when the first group (control group) was set as the standard (1.00).
(Real-time PCR tracks product formation cycle by cycle.)

The subject of data set [2] is Atrogin-1 (Gene Symbol: Fbxo32). As to the kind of experiment: Gene expression analysis (real-time PCR) in gastrocnemius muscle of muscle atrophy model: Atrogin-1. Format: in vivo, rat. Here is the method: as §1
In data set [3] the test system is PGC-1α (Gene Symbol: Ppargc1a). As to the kind of experiment: Gene expression analysis (real-time PCR) in gastrocnemius muscle of muscle atrophy model: PGC-1α. The format is in vivo, rat. As to the method: as §1
Data set [4] has as its system GLUT4 (Gene Symbol: Slc2a4). As to the kind of experiment: Gene expression analysis (real-time PCR) in gastrocnemius muscle of muscle atrophy model: GLUT4. Format: in vivo, rat. As to the method:
as §1

The subject of another data set is IL-6 (Gene Symbol: Il6). As to the kind of experiment: Gene expression analysis (real-time PCR) in gastrocnemius muscle of muscle atrophy model: IL-6. Format: in vivo, rat. Here is the method: as §1
A further data set concerns AMPK. As to the kind of experiment: Kinase activation analysis in muscle atrophy model: AMPK phosphorylation (ELISA). The following applies: gastrocnemius muscle. Format: in vivo, rat. As to the method:
(§2) For the gastrocnemius muscle extracted in Testing Example 1 above, the phosphorylation state of AMPK and Akt, which are kinases contributing to increase in muscle mass, was evaluated by Luminex measurement and ELISA measurement.
(§3) The tissue of the gastrocnemius muscle extracted in Testing Example 1 above was fragmented, and a tissue extract was collected. The total protein concentration was quantified and used for Luminex measurement and ELISA measurement described below so that the total protein amount was 10 μg per well.
For AMPK, PathScan® Total AMPKα Sandwich ELISA Kit (available from Cell Signaling Technology, catalog number: 7961C) was used to measure the total AMPK (t-AMPK), and PathScan® Phospho-AMPKα (Thr172) ELISA Sandwich Kit (available from Cell Signaling Technology, catalog number: 7959C) was used to measure the Thr172 phosphorylated AMPK (p-AMPK).
(§4) As an internal standard, GAPDH was measured using Total GAPDH Magnetic Bead MAPmate™ (available from EMD Millipore, catalog number: 46-667MAG), and the measured values of the above AMPK and Akt were standardized.
On the technique in general: An ELISA detects its analyte on a solid surface through an enzyme-linked reagent.

For another data set, the system named is Akt. As to the kind of experiment: Kinase activation analysis in muscle atrophy model: Akt phosphorylation (Luminex). The format is in vivo, rat. As to conditions: gastrocnemius muscle. Here is the method: as §2, §3
For Akt, MILLIPLEX® MAP Phospho/Total Akt 2-Plex Magnetic Bead Kit 96-well Plate Assay (available from EMD Millipore, catalog number: 48-618MAG) was used to measure the total Akt amount (t-Akt) and the phosphorylated Akt (p-Akt, Ser473) all at once in one reaction system.
as §4

Setting [5] is: administration group 125 mg/kg vs control group.
Where [6] appears, read: 125 mg/kg orally 14 days, standardized with GAPDH.

As to `COc1cc(CCC(=O)O)ccc1O` [compound (I), 3-(4-hydroxy-3-methoxyphenyl) propionic acid], in the data set on rat muscle atrophy model (setting [5]), the “difference in body weight between groups (in words)” value is “no difference was observed”, the “weight of the gastrocnemius muscle compared to control group (in words)” value is listed as “increased” and the “weight of the soleus muscle compared to control group (in words)” value was “increased”. The “muscle mass (in words)” value with rat muscle atrophy model (administration of 125 mg/kg, rat muscle atrophy model) is given as “increased”. In addition, the Gastrocnemius muscle (total of right and left) weight in the data set with rat muscle atrophy model (hindlimb-suspended rats, 125 mg/kg orally once a day for 14 days, day 15, control 2.50) is 2.69 g. Moreover, the “Soleus muscle (total of right and left) weight” value in the data set on rat muscle atrophy model (hindlimb-suspended rats, 125 mg/kg orally once a day for 14 days, day 15, control 130.3) is 149.1 mg. In addition, in the data set with rat muscle atrophy model (hindlimb-suspended rats, 125 mg/kg orally once a day for 14 days, day 15, control 310), the Body weight came out at 309 g. In addition, in data set [1] (setting [6]), the “MuRF-1 (Trim63) gene expression, relative value (control group = 1.00)” value is listed as 0.81. Also, the “MuRF-1 gene expression compared to control group (in words)” value in data set [1] (administration group 125 mg/kg) is reported as “tendency to decrease”. The “Atrogin-1 (Fbxo32) gene expression, relative value (control group = 1.00)” value in data set [2] (setting [6]) is 0.68. Besides, the “Atrogin-1 gene expression compared to control group (in words)” value in data set [2] (administration group 125 mg/kg) was “tendency to decrease”. Also, in data set [3] (setting [6]), the “PGC-1α (Ppargc1a) gene expression, relative value (control group = 1.00)” value is 1.28. Further, in data set [3] (administration group 125 mg/kg), the “PGC-1α gene expression compared to control group (in words)” value was “tendency to increase”. In addition, in data set [4] (setting [6]), the “GLUT4 (Slc2a4) gene expression, relative value (control group = 1.00)” value is recorded as 1.13. In addition, in data set [4] (administration group 125 mg/kg), the “GLUT4 gene expression compared to control group (in words)” value is listed as “tendency to increase”. Besides, in the data set with IL-6 (Gene Symbol: Il6) (setting [6]), the “IL-6 (Il6) gene expression, relative value (control group = 1.00)” value came to 1.10. Further, the “IL-6 gene expression compared to control group (in words)” value with IL-6 (Gene Symbol: Il6) (administration group 125 mg/kg) is “tendency to increase”. The molecule also returned a p-AMPK/t-AMPK in the data set on AMPK (125 mg/kg orally 14 days, Thr172, standardized with GAPDH, control group 100.0) of 120.8. In addition, the “phosphorylated form of AMPK compared to control group (in words)” value in the data set on AMPK (administration group 125 mg/kg) is “tendency to increase”. In addition, in the data set on Akt (125 mg/kg orally 14 days, Ser473, standardized with GAPDH, control group 100.0), the p-Akt/t-Akt is on record as 172.9. The “phosphorylated form of Akt compared to control group (in words)” value in the data set on Akt (administration group 125 mg/kg) is reported as “tendency to increase”.

The record behind these values is patent US20250228806A1, “AMPK ACTIVATOR, MOTOR FUNCTION IMPROVING AGENT, MUSCULAR ENDURANCE IMPROVING AGENT, AND MUSCLE ATROPHY PREVENTING AGENT” (MARUZEN PHARMACEUTICALS CO., LTD., priority 2021, published 2025).
